Drawing on US12077503B2, “Substituted cyclic amides and their use as herbicides” (FMC CORPORATION, priority 2015, dated 2024), this text covers pest or weed control, Corn plant response rating (crop injury, 0 = no effect, 100 = complete kill) and plant injury for two compounds.

Format in all cases: in vivo
For assay [1], the system named is ragweed (common ragweed, Ambrosia elatior). Nature of the assay: Test A postemergence. Particulars: Ambrosia artemisiifolia, post-emergence, 240 h, 125 g ai/ha. The procedure, abridged:
(§1)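 In a loam soil and sand blend, planted seeds got a preemergence directed soil spray, and young plants at the one- to two-leaf stage, 2–10 cm high, got a postemergence application; ~10 d greenhouse hold; injury rated visually, 0 = none, 100 = complete control.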

The subject of assay [2] is giant foxtail (Setaria faberii). Nature of the assay: Test A postemergence. Particulars: Setaria faberi, post-emergence, 240 h, 125 g ai/ha. The procedure, abridged:
as §1

Another assay concerns corn (Zea mays). Nature of the assay: Test A postemergence. The following applies: Zea mays, post-emergence, 240 h, 125 g ai/ha. The procedure, abridged:
as §1

For assay [3], the system named is blackgrass (Alopecurus myosuroides). Nature of the assay: Test A postemergence. The following applies: Alopecurus myosuroides, post-emergence, 240 h, 125 g ai/ha. The procedure, abridged: as §1
In assay [4] the test system is ryegrass, Italian (Italian ryegrass, Lolium multiflorum). Nature of the assay: Test A postemergence. Particulars: Lolium multiflorum, post-emergence, 240 h, 125 g ai/ha. Put shortly:
as §1

Assay [5] concerns wheat (Triticum aestivum). Nature of the assay: Test A postemergence. Particulars: Triticum aestivum, post-emergence, 240 h, 125 g ai/ha. Put shortly:
as §1

Assay [6] has as its system Galium (catchweed bedstraw, Galium aparine). Nature of the assay: Test A postemergence. Particulars: Galium, post-emergence, 240 h, 125 g ai/ha. The procedure, abridged: as §1
For assay [7], the system named is barnyardgrass (Echinochloa crus-galli). Nature of the assay: Test A postemergence. Particulars: Echinochloa crus-galli, post-emergence, 240 h, 125 g ai/ha. Put shortly: as §1
The test system of assay [8] is Kochia (Kochia scoparia). Nature of the assay: Test A postemergence. Particulars: Bassia scoparia, post-emergence, 240 h, 125 g ai/ha. The procedure, abridged: as §1
Assay [9] relates to ragweed (common ragweed, Ambrosia elatior). Nature of the assay: Test A preemergence. The following applies: Ambrosia artemisiifolia, pre-emergence, 240 h; for pest or weed control at 125 g/ha: 125 g ai/ha; for pest or weed control at 500 g/ha: 500 g ai/ha. Put shortly:
as §1

Assay [10] concerns giant foxtail (Setaria faberii). Nature of the assay: Test A preemergence. Particulars: Setaria faberi, pre-emergence, 240 h; for pest or weed control at 125 g/ha: 125 g ai/ha; for pest or weed control at 500 g/ha: 500 g ai/ha. Put shortly:
as §1

For assay [11], the system named is ryegrass, Italian (Italian ryegrass, Lolium multiflorum). Nature of the assay: Test A preemergence. Particulars: Lolium multiflorum, pre-emergence, 240 h; for pest or weed control at 125 g/ha: 125 g ai/ha; for pest or weed control at 500 g/ha: 500 g ai/ha. Put shortly:
as §1

The test system of assay [12] is pigweed (Amaranthus retroflexus). Nature of the assay: Test A preemergence. Particulars: Amaranthus retroflexus, pre-emergence, 240 h; for pest or weed control at 125 g/ha: 125 g ai/ha; for pest or weed control at 500 g/ha: 500 g ai/ha.
In assay [13] the test system is barnyardgrass (Echinochloa crus-galli). Nature of the assay: Test A preemergence. The following applies: Echinochloa crus-galli, pre-emergence, 240 h; for pest or weed control at 125 g/ha: 125 g ai/ha; for pest or weed control at 500 g/ha: 500 g ai/ha. The procedure, abridged:
as §1

Assay [14] concerns Kochia (Kochia scoparia). Nature of the assay: Test A preemergence. The following applies: Bassia scoparia, pre-emergence, 240 h; for pest or weed control at 125 g/ha: 125 g ai/ha; for pest or weed control at 500 g/ha: 500 g ai/ha. Put shortly: as §1

Each structure is given as a SMILES string. Where two headings read alike, the source gives them in different places.

With `CN1C[C@H](c2cc(F)cc(F)c2)[C@@H](C(=O)Nc2ccc(C(F)(F)F)cc2)C1=O` [Compound 968], the pest or weed control at 125 g/ha in assay [1] (Postemergence, visual injury after approximately 10 d, 0 to 100 scale where 0 is no effect and 100 is complete control, read-out: Plant response rating, Ragweed) is 0%; in assay [2] (Postemergence, visual injury after approximately 10 d, 0 to 100 scale where 0 is no effect and 100 is complete control, read-out: Plant response rating, Foxtail, Giant) it was 0%; in assay [3] (Postemergence, visual injury after approximately 10 d, 0 to 100 scale where 0 is no effect and 100 is complete control, read-out: Plant response rating, Blackgrass), 0%; in [4] (Postemergence, visual injury after approximately 10 d, 0 to 100 scale where 0 is no effect and 100 is complete control, read-out: Plant response rating, Ryegrass, Italian) it was 0%; in assay [6] (Postemergence, visual injury after approximately 10 d, 0 to 100 scale where 0 is no effect and 100 is complete control, read-out: Plant response rating, Galium), 0%; in [7] (Postemergence, visual injury after approximately 10 d, 0 to 100 scale where 0 is no effect and 100 is complete control, read-out: Plant response rating, Barnyardgrass) it was 20%. The pest or weed control at 125 g/ha in the assay with Kochia (Kochia scoparia) [8] (Postemergence, visual injury after approximately 10 d, 0 to 100 scale where 0 is no effect and 100 is complete control, read-out: Plant response rating, Kochia) stood at 0%; in assay [9] (Preemergence, visual injury rating after approximately 10 d, read-out: Ragweed plant response rating (0 to 100 scale, 0 is no effect, 100 is complete control)), 0%; in assay [10] (Preemergence, visual injury rating after approximately 10 d, read-out: Foxtail, Giant plant response rating (0 to 100 scale, 0 is no effect, 100 is complete control)), 30%; in assay [11] (Preemergence, visual injury rating after approximately 10 d, read-out: Ryegrass, Italian plant response rating (0 to 100 scale, 0 is no effect, 100 is complete control)) it was 0%; in assay [12] (Preemergence, visual injury rating after approximately 10 d, read-out: Pigweed plant response rating (0 to 100 scale, 0 is no effect, 100 is complete control)) it was 0%; in [13] (Preemergence, visual injury rating after approximately 10 d, read-out: Barnyardgrass plant response rating (0 to 100 scale, 0 is no effect, 100 is complete control)) it was 20%. The pest or weed control at 125 g/ha with Kochia (Kochia scoparia) [14] (Preemergence, visual injury rating after approximately 10 d, read-out: Kochia plant response rating (0 to 100 scale, 0 is no effect, 100 is complete control)) is 0%. Further, the Corn plant response rating (crop injury, 0 = no effect, 100 = complete kill) at 125 g/ha in the assay on corn (Zea mays) (Postemergence, visual injury after approximately 10 d, 0 to 100 scale where 0 is no effect and 100 is complete control) is 0%. The plant injury at 125 g/ha in [5] (Postemergence, visual injury after approximately 10 d, 0 to 100 scale where 0 is no effect and 100 is complete control, read-out: Plant response rating, Wheat) turned out to be 0%. Further, the pest or weed control at 500 g/ha in [9] (preemergence, visual injury rating about 10 d after treatment, 0 to 100 scale (0 no effect, 100 complete control), read-out: Ragweed plant response rating) came to 0%; in [10] (preemergence, visual injury rating about 10 d after treatment, 0 to 100 scale (0 no effect, 100 complete control), read-out: Foxtail, Giant plant response rating) it was 60%; in assay [11] (preemergence, visual injury rating about 10 d after treatment, 0 to 100 scale (0 no effect, 100 complete control), read-out: Ryegrass, Italian plant response rating), 0%; in assay [12] (preemergence, visual injury rating about 10 d after treatment, 0 to 100 scale (0 no effect, 100 complete control), read-out: Pigweed plant response rating), 0%; in assay [13] (preemergence, visual injury rating about 10 d after treatment, 0 to 100 scale (0 no effect, 100 complete control), read-out: Barnyardgrass plant response rating) it was 60%; with Kochia (Kochia scoparia) [14] (preemergence, visual injury rating about 10 d after treatment, 0 to 100 scale (0 no effect, 100 complete control), read-out: Kochia plant response rating) it was 0%.

Take `Cc1c(F)ccc([C@H]2CNC(=O)[C@@H]2C(=O)Nc2ccccc2C(F)(F)F)c1F` [Compound 831]: the pest or weed control at 125 g/ha in assay [1] (postemergence, visual injury rating after approximately 10 d, read-out: Ragweed plant response rating (0 to 100 scale, 0 no effect, 100 complete control)) was 0%; in [2] (postemergence, visual injury rating after approximately 10 d, read-out: Foxtail, Giant plant response rating (0 to 100 scale, 0 no effect, 100 complete control)), 20%; in assay [3] (postemergence, visual injury rating after approximately 10 d, read-out: Blackgrass plant response rating (0 to 100 scale, 0 no effect, 100 complete control)) it was 0%; in assay [4] (postemergence, visual injury rating after approximately 10 d, read-out: Ryegrass, Italian plant response rating (0 to 100 scale, 0 no effect, 100 complete control)), 20%; in [6] (postemergence, visual injury rating after approximately 10 d, read-out: Galium plant response rating (0 to 100 scale, 0 no effect, 100 complete control)) it was 20%; in [7] (postemergence, visual injury rating after approximately 10 d, read-out: Barnyardgrass plant response rating (0 to 100 scale, 0 no effect, 100 complete control)), 30%. Moreover, the pest or weed control at 125 g/ha was 0% in the assay with Kochia (Kochia scoparia) [8] (postemergence, visual injury rating after approximately 10 d, read-out: Kochia plant response rating (0 to 100 scale, 0 no effect, 100 complete control)); 0% in assay [9] (preemergence, 0 to 100 scale where 0 is no effect and 100 is complete control, read-out: Ragweed plant response rating); 90% in assay [10] (preemergence, 0 to 100 scale where 0 is no effect and 100 is complete control, read-out: Foxtail, Giant plant response rating); 30% in assay [11] (preemergence, 0 to 100 scale where 0 is no effect and 100 is complete control, read-out: Ryegrass, Italian plant response rating); 20% in assay [12] (preemergence, 0 to 100 scale where 0 is no effect and 100 is complete control, read-out: Pigweed plant response rating); 50% in [13] (preemergence, 0 to 100 scale where 0 is no effect and 100 is complete control, read-out: Barnyardgrass plant response rating). The pest or weed control at 125 g/ha in the assay on Kochia (Kochia scoparia) [14] (preemergence, 0 to 100 scale where 0 is no effect and 100 is complete control, read-out: Kochia plant response rating) was found to be 0%. In addition, the plant injury at 125 g/ha with corn (Zea mays) (postemergence, visual injury rating after approximately 10 d, read-out: Corn plant response rating (0 to 100 scale, 0 no effect, 100 complete control)) came out at 0%; in assay [5] (postemergence, visual injury rating after approximately 10 d, read-out: Wheat plant response rating (0 to 100 scale, 0 no effect, 100 complete control)) it was 0%. The pest or weed control at 500 g/ha was found to be 0% in [9] (Preemergence, visual injury vs untreated controls after approximately 10 d, read-out: Ragweed plant response rating (0 to 100 scale where 0 is no effect and 100 is complete control)); 90% in assay [10] (Preemergence, visual injury vs untreated controls after approximately 10 d, read-out: Foxtail, Giant plant response rating (0 to 100 scale where 0 is no effect and 100 is complete control)); 50% in assay [11] (Preemergence, visual injury vs untreated controls after approximately 10 d, read-out: Ryegrass, Italian plant response rating (0 to 100 scale where 0 is no effect and 100 is complete control)); 20% in assay [12] (Preemergence, visual injury vs untreated controls after approximately 10 d, read-out: Pigweed plant response rating (0 to 100 scale where 0 is no effect and 100 is complete control)); 70% in assay [13] (Preemergence, visual injury vs untreated controls after approximately 10 d, read-out: Barnyardgrass plant response rating (0 to 100 scale where 0 is no effect and 100 is complete control)); 0% in the assay on Kochia (Kochia scoparia) [14] (Preemergence, visual injury vs untreated controls after approximately 10 d, read-out: Kochia plant response rating (0 to 100 scale where 0 is no effect and 100 is complete control)).
